# Measurements: PubChem BioAssay (NCI)
# Where “and” joins values, the source holds several entries; their conditions need not be identical. Identical values can stand only once.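 Cultured in 96-well plates, cells were exposed to test compound for 48 hours across five concentrations. Here, GI50 denotes the concentration required for 50% inhibition of growth. TGI: total growth inhibition.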
# Key:
# Experiment in all cases: NCI-60 cell line screen, 48 h
# CAKI-1 renal = tested on: CAKI-1 renal
# HCC-2998 colon = tested on: HCC-2998 colon
# HCT-116 colon = tested on: HCT-116 colon
# HCT-15 colon = tested on: HCT-15 colon
# KM12 colon = tested on: KM12 colon
# M14 melanoma = tested on: M14 melanoma
# MOLT-4 leukemia = tested on: MOLT-4 leukemia
# NCI-H460 lung = tested on: NCI-H460 lung
# SK-MEL-5 melanoma = tested on: SK-MEL-5 melanoma
# SR leukemia = tested on: SR leukemia
SMILES,GI50 (CAKI-1 renal),TGI (CAKI-1 renal),GI50 (HCC-2998 colon),TGI (HCC-2998 colon),GI50 (HCT-116 colon),TGI (HCT-116 colon),GI50 (HCT-15 colon),TGI (HCT-15 colon),GI50 (KM12 colon),TGI (KM12 colon),GI50 (M14 melanoma),TGI (M14 melanoma),GI50 (MOLT-4 leukemia),TGI (MOLT-4 leukemia),GI50 (NCI-H460 lung),TGI (NCI-H460 lung),GI50 (SK-MEL-5 melanoma),TGI (SK-MEL-5 melanoma),GI50 (SR leukemia),TGI (SR leukemia)
CCCn1cnc2c(SCc3ccccc3Cl)nc(N)nc21,6.43 µM,44.1 µM,17.8 µM,67 µM,5.2 µM,17.5 µM,1.36 µM,20.1 µM,15.3 µM,> 100 µM,17.6 µM,61.9 µM,5.22 µM,34.1 µM,4.2 µM,26.4 µM,4.22 µM,19 µM,2.23 µM,14.2 µM
CCC[CH2][Sn]1([CH2]CCC)[O]Cc2nc(C)ccc2[O]1,2.36 µM,9.03 µM,7.86 µM,21.3 µM,12.1 µM,24.5 µM,10.1 µM,21.9 µM,11.1 µM,23 µM,10.9 µM,23.5 µM,3.04 µM,10.7 µM,16 µM,31.1 µM,13 µM,25.9 µM,2.95 µM,12.7 µM
CC[C@]1(O)C[C@@H]2CN(CCc3c([nH]c4ccccc34)[C@@](C(=O)OC)(c3cc4c(cc3OC)N(C)[C@H]3[C@@](O)(C(=O)OC)[C@H](OC(C)=O)[C@]5(CC)C=CCN6CC[C@]43[C@@H]65)C2)C1,< 0.01 µM,4.65 µM,< 0.01 µM,7.74 µM,< 0.01 µM,15 µM,< 0.0116 µM,14.6 µM,< 0.01 µM,14.4 µM,< 0.01 µM,4.31 µM,< 0.01 µM,21.3 µM,< 0.01 µM,15.1 µM,< 0.01 µM,< 0.0385 µM,< 0.01 µM,19.6 µM
CC1(C)OC2[C@@H](CNC(=O)NC(=O)NC(=O)CI)O[C@@H](n3cnc4c(NC(=O)Nc5ccccc5)ncnc43)[C@H]2O1 (some centres not stated),0.79 µM,1.56 µM,9.29 µM,19.7 µM,10.7 µM,25.4 µM,4.84 µM,11.9 µM,15.8 µM,> 50 µM,6.95 µM,14.3 µM,1.86 µM,9.28 µM,27 µM,> 50 µM,8.74 µM,16.2 µM,0.954 µM,2.3 µM
Oc1ccc2ccccc2c1N=Nc1nccs1,0.323 µM,11.6 µM,3.61 µM,33.2 µM,0.213 µM,6.09 µM,0.32 µM,19.6 µM,0.629 µM,19.9 µM,2.97 µM,18.3 µM,0.186 µM,> 46.9 µM,0.839 µM,> 100 µM,3.55 µM,15.6 µM,0.111 µM,
Oc1ccc(NCc2nc3ccccc3[nH]2)cc1,> 100 µM,> 100 µM,74.2 µM,> 100 µM,41.8 µM,> 100 µM,> 100 µM,> 100 µM,> 100 µM,> 100 µM,> 100 µM,> 100 µM,> 100 µM,> 100 µM,41.9 µM,> 100 µM,72.4 µM,> 100 µM,53.8 µM,> 100 µM
O=C(/C=C/c1c(O)ccc2ccccc12)c1cccc(O)c1,,> 100 µM,,> 100 µM,,> 100 µM,,> 100 µM,,> 100 µM,,> 100 µM,,> 100 µM,,> 100 µM,,> 100 µM,,> 100 µM
CC[CH2][Sn]([CH2]CC)([O]C(=O)c1cccnc1SC)[O][Sn]([CH2]CC)([CH2]CC)[O]C(=O)c1cccnc1SC,0.266 µM,0.801 µM,0.642 µM,1.92 µM,0.452 µM,1.48 µM,0.246 µM,0.998 µM,1.5 µM,4.43 µM,0.513 µM,1.38 µM,0.149 µM,> 16.6 µM,1.99 µM,4.94 µM,0.898 µM,3.26 µM,0.214 µM,12.1 µM
O=C1c2cc(Cl)ccc2S(=O)(=O)c2c(NCCCNCCO)nc3ccccc3c21,1.18 µM,2.4 µM,4.31 µM,15.1 µM,1.49 µM,3.26 µM,0.926 µM,2.35 µM,1.59 µM,3.3 µM,1.95 µM,4.9 µM,1.82 µM,5.63 µM,2.02 µM,4.73 µM,2.5 µM,6.48 µM,0.466 µM,5.11 µM
COc1ccc(-c2cnnc3c(-c4cccc(C(F)(F)F)c4)cnn23)cc1,3.3 µM,> 100 µM,> 100 µM,> 100 µM,3.46 µM,> 100 µM,> 100 µM,> 100 µM,> 100 µM,> 100 µM,> 100 µM,> 100 µM,> 100 µM,> 100 µM,4.67 µM,> 100 µM,3.85 µM,> 100 µM,> 100 µM,> 100 µM
Oc1ccc(CN2CCC(N3CCCCC3)CC2)c2cccnc12,33.8 µM,> 100 µM,64.2 µM,> 100 µM,4.49 µM,> 100 µM,5.83 µM,> 100 µM,30.3 µM,> 100 µM,5.75 µM,> 100 µM,19.9 µM,> 100 µM,4.01 µM,> 100 µM,15.8 µM,75.9 µM,16.7 µM,> 100 µM
OCc1c[nH]c2ccccc12,15.8 µM,52.8 µM,20.2 µM,41 µM,17.2 µM,31.9 µM,20.3 µM,55.3 µM,16 µM,37.2 µM,23.4 µM,54.1 µM,39.1 µM,> 100 µM,21 µM,45.4 µM,14.4 µM,30.1 µM,30.2 µM,77.4 µM
C=C1C(=O)O[C@H]2[C@H]1CC/C(Cn1cc(-c3ccc(OC)cc3)nn1)=C\CC[C@@]1(C)O[C@@H]21,1.03 µM,3.63 µM,1.98 µM,3.64 µM,0.488 µM,1.79 µM,0.338 µM,1.38 µM,3.51 µM,14.2 µM,1.3 µM,3.09 µM,1.13 µM,3.66 µM,8.45 µM,25.2 µM,2.1 µM,4.69 µM,0.257 µM,1.48 µM
CC(C)C(=O)NC(=S)Nc1ccc([N+](=O)[O-])cc1C#N,,> 100 µM,,> 100 µM,,> 100 µM,,> 100 µM,,> 100 µM,,> 100 µM,,> 100 µM,,> 100 µM,,> 100 µM,,> 100 µM
O=C(N/N=C/c1ccccc1O)c1ccccc1Nc1ccnc(C(F)(F)F)c1,0.337 µM,10.3 µM,0.388 µM,24.7 µM,0.414 µM,20.9 µM,0.177 µM,> 100 µM,0.484 µM,32.7 µM,0.497 µM,3.76 µM,0.28 µM,> 32.3 µM,0.255 µM,11.2 µM,0.432 µM,5.53 µM,0.197 µM,
CCOc1cc2c(Cl)ncnc2c(OCC)c1OCC,1.56 µM,3.03 µM,1.88 µM,3.59 µM,3.39 µM,11.9 µM,2.56 µM,9.07 µM,4.96 µM,16.4 µM,6.24 µM,20.1 µM,2.87 µM,10.4 µM,5.21 µM,17.7 µM,3.8 µM,12.1 µM,1.18 µM,4.31 µM
O/N=C/C1c2ccccc2-c2ccccc21,,33.2 µM,,31.9 µM,,32.8 µM,,40.2 µM,,37.4 µM,,32.7 µM,,52.6 µM,,36 µM,,25.4 µM,,51.7 µM
OCC(O)CC[CH2][Sn]([Br])([c]1ccccc1)[c]1ccccc1 (configuration not stated),> 100 µM,> 100 µM,> 100 µM,> 100 µM,> 100 µM,> 100 µM,> 100 µM,> 100 µM,> 100 µM,> 100 µM,> 100 µM,> 100 µM,,,> 100 µM,> 100 µM,> 100 µM,> 100 µM,> 100 µM,> 100 µM
CC1=NN(C(=O)Nc2ccccc2)C(=O)C2CCC(=O)N12 (configuration not stated),,> 100 µM,,> 100 µM,,> 100 µM,,> 100 µM,,> 100 µM,,> 100 µM,,> 100 µM,,> 100 µM,,> 100 µM,,> 100 µM
CCN(CC)CCOc1ccc(/C(=C(\Cl)c2ccccc2)c2ccccc2)cc1,5.47 µM and 1.66 µM,12.3 µM and 5.48 µM,2 µM and 2.4 µM,7.35 µM and 6.41 µM,2.03 µM and 1.49 µM,7.14 µM and 3.07 µM,1.47 µM and 1.72 µM,5.01 µM and 7.38 µM,2.1 µM and 1.87 µM,7.2 µM and 4.08 µM,1.03 µM and 1.73 µM,2.04 µM and 3.44 µM,2.98 µM and 3.71 µM,11.8 µM and 13.1 µM,1.72 µM and 1.78 µM,5.32 µM and 3.43 µM,0.808 µM and 1.55 µM,1.5 µM and 2.88 µM,1.9 µM and 2.3 µM,9.16 µM and 8.36 µM
FC(F)(F)c1cccc(Nc2nccc(-c3cnn4nc(-c5ccccc5)ccc34)n2)c1,10.2 µM,> 25 µM,23.5 µM,> 25 µM,5.92 µM,14.8 µM,8.5 µM,24.4 µM,6.46 µM,> 19.6 µM,12 µM,24.5 µM,> 16.5 µM,> 25 µM,5.23 µM,11.1 µM,14.7 µM,> 25 µM,2.15 µM,> 25 µM
CC/C(=C(/c1ccc(O)cc1)c1ccc(OCCNC)cc1)c1ccccc1,2.75 µM,8.58 µM,1.9 µM,3.46 µM,1.68 µM,3.12 µM,1.87 µM,4.07 µM,1.87 µM,3.83 µM,1.69 µM,3.31 µM,2.46 µM,7.14 µM,1.84 µM,3.37 µM,1.67 µM,3.09 µM,2.09 µM,5.46 µM
O=C(/C(Br)=C/c1ccccc1)c1ccccc1,1.34 µM,3.39 µM,6.8 µM,19 µM,1.64 µM,3.12 µM,1.02 µM,2.47 µM,7.54 µM,21.4 µM,1.36 µM,3.23 µM,2.23 µM,6.95 µM,17.8 µM,38 µM,4.96 µM,17.3 µM,1.41 µM,8.74 µM
COc1cc(C2=NOC(c3cc(OC)c(OC)c(OC)c3)C2)ccc1OCCCCOc1cc2c(cc1OC)C(=O)N1CCC[C@H]1C=N2 (some centres not stated),0.245 µM,0.631 µM,0.192 µM,0.367 µM,0.216 µM,0.575 µM,1.46 µM,5.43 µM,0.298 µM,0.882 µM,0.206 µM,0.432 µM,0.299 µM,,0.275 µM,,0.168 µM,0.319 µM,0.279 µM,
CC(=O)OCCN1c2ccccc2Sc2cnccc21,,> 10 µM,,> 10 µM,,> 10 µM,,> 10 µM,,> 10 µM,,> 10 µM,,> 10 µM,,> 10 µM,,> 10 µM,,> 10 µM
COc1cc2c(c(O)c1Br)C(=O)c1c(O)cc(C[C@H](C)O)cc1[C@H]2[C@H]1c2cc(C[C@H](C)O)cc(O)c2C(=O)c2c1cc(OC)c(Br)c2O,10.6 µM and 28.4 µM,33.3 µM and 94.6 µM,8.39 µM and 14.8 µM,67.5 µM and > 100 µM,3.77 µM and 5.49 µM,67.5 µM and 63.1 µM,10.4 µM and 17.4 µM,67.5 µM and > 100 µM,5.96 µM and 26.4 µM,37.9 µM and 82.4 µM,11.4 µM and 20.9 µM,45.8 µM and > 100 µM,3.54 µM and 6.39 µM,67.5 µM and > 100 µM,2.76 µM and 5.27 µM,21.4 µM and 19.4 µM,7.44 µM and 15 µM,16 µM and 28.5 µM,3.04 µM and 3.98 µM,67.5 µM and > 100 µM
COc1ccc(-c2cc(=O)c3c(OC)c(OC)c(OC)cc3o2)cc1,,> 100 µM,,49 µM,,> 100 µM,,> 100 µM,,,,> 100 µM,,> 100 µM,,81.4 µM,,43.3 µM,,> 100 µM
